In the kinase profiling compilation of Christmann-Franck et al. (2016):

Legend:
Experiment in all cases: radiometric filter-binding kinase assay, Kinase HotSpot
Details in all cases: compound 0.5 µM; ATP 10 µM
[1] = biological target: ACVRL1 (human) (UniProt P37023)
[2] = biological target: AKT3 (human) (UniProt Q9Y243)
[3] = biological target: AXL (human) (UniProt P30530)
[4] = biological target: CAMK4 (human) (UniProt Q16566)
[5] = biological target: CDK9 CCNK (human) (UniProt O75909+P50750)
[6] = biological target: CHUK (human) (UniProt O15111)
[7] = biological target: CSNK1D (human) (UniProt P48730)
[8] = biological target: CSNK1G1 (human) (UniProt Q9HCP0)
[9] = biological target: CSNK2A2 (human) (UniProt P19784)
[10] = biological target: DAPK1 (human) (UniProt P53355)
[11] = biological target: DSTYK (human) (UniProt Q6XUX3)
[12] = biological target: DYRK1A (human) (UniProt Q13627)
[13] = biological target: DYRK2 (human) (UniProt Q92630)
[14] = biological target: FYN (human) (UniProt P06241)
[15] = biological target: GRK6 (human) (UniProt P43250)
[16] = biological target: GSK3B (human) (UniProt P49841)
[17] = biological target: HCK (human) (UniProt P08631)
HCK (human), sequence (P08631 whole entry, looked up): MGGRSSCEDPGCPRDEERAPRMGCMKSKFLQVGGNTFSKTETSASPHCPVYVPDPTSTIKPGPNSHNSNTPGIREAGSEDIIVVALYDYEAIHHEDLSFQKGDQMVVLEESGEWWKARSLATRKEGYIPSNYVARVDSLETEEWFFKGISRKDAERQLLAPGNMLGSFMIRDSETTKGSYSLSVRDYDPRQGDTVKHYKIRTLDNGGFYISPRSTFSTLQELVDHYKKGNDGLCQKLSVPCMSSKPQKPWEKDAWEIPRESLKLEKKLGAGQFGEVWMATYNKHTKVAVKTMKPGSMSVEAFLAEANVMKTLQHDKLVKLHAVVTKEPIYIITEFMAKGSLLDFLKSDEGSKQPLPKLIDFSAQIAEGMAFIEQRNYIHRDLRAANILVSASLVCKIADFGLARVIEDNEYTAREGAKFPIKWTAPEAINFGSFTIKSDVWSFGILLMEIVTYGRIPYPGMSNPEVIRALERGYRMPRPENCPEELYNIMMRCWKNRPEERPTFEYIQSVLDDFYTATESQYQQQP

[18] = biological target: IRAK1 (human) (UniProt P51617)
[19] = biological target: JAK2 JH1 JH2 (human) (UniProt O60674)
JAK2 JH1 JH2 (human), sequence (O60674 whole entry, looked up): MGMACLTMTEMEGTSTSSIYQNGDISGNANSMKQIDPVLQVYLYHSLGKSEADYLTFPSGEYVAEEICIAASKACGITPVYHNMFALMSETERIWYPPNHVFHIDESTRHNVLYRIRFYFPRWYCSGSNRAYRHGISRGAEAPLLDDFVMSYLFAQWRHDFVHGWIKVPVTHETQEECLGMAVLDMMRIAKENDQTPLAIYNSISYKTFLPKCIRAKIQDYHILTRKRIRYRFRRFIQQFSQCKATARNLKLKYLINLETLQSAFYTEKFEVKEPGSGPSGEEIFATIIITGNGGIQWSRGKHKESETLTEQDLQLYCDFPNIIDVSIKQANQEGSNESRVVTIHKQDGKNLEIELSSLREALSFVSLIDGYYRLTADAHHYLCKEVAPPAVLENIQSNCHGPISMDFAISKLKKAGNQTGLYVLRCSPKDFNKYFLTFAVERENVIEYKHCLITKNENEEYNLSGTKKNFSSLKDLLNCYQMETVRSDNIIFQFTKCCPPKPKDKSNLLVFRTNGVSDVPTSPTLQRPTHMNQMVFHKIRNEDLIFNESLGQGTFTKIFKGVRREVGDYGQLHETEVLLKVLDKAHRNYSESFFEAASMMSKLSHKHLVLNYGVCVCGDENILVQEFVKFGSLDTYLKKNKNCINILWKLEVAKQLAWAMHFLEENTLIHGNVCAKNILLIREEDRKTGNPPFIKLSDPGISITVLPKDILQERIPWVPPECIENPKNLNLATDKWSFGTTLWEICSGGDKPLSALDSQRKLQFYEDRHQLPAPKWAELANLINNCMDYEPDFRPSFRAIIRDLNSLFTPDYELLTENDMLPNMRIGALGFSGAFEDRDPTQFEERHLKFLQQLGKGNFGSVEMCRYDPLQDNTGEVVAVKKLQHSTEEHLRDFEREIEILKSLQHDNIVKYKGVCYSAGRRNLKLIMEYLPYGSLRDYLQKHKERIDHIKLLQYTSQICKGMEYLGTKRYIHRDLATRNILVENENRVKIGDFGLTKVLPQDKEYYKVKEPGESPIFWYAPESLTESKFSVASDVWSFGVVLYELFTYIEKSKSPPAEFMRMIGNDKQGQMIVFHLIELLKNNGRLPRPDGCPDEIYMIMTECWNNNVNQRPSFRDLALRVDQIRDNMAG

[20] = biological target: LIMK1 (human) (UniProt P53667)
[21] = biological target: MAPK12 (human) (UniProt P53778)
MAPK12 (human), sequence (P53778 whole entry, looked up): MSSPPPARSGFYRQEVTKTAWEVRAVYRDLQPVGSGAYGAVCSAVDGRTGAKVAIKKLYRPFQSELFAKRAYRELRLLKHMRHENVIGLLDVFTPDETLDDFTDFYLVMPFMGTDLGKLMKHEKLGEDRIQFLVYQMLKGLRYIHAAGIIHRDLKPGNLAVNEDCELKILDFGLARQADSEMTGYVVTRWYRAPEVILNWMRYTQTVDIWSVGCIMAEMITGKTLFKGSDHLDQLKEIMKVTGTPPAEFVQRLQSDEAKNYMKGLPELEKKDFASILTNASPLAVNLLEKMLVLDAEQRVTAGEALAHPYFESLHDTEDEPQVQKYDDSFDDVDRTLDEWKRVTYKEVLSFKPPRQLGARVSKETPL

[22] = biological target: MAPK13 (human) (UniProt O15264)
[23] = biological target: MAPKAPK3 (human) (UniProt Q16644)
MAPKAPK3 (human), sequence (Q16644 whole entry, looked up): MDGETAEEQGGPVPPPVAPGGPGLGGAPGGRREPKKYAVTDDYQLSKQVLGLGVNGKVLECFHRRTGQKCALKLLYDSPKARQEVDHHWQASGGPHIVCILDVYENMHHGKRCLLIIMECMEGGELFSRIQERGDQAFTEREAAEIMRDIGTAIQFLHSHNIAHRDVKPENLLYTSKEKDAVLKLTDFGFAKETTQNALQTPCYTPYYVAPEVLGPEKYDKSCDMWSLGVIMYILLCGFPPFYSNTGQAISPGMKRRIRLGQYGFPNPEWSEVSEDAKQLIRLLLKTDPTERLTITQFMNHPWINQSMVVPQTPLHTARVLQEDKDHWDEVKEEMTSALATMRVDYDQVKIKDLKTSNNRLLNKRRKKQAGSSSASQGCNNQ

[24] = biological target: MARK2 (human) (UniProt Q7KZI7)
MARK2 (human), sequence (Q7KZI7 whole entry, looked up): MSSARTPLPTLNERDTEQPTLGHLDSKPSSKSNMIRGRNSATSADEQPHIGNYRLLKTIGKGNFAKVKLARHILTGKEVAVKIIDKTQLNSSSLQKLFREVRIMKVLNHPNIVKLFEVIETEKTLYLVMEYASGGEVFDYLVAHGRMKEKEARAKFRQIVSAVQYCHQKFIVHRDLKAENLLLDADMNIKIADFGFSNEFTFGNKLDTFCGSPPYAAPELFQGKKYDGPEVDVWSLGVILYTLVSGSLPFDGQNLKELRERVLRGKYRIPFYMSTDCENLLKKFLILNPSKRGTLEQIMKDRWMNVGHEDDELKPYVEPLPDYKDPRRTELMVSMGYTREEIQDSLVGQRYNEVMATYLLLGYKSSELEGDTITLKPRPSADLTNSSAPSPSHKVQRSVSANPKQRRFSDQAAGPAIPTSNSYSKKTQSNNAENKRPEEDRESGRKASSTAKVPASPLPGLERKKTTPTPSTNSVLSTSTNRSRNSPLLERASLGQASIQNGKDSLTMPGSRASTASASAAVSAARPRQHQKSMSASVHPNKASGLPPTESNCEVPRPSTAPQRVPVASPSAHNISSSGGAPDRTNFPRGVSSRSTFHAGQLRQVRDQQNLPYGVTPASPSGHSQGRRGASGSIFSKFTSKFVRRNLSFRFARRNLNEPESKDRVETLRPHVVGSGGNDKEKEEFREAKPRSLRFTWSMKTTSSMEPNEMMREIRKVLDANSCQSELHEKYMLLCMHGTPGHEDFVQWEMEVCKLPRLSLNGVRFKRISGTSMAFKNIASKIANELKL

[25] = biological target: MARK3 (human) (UniProt P27448)
[26] = biological target: MERTK (human) (UniProt Q12866)
[27] = biological target: MUSK (human) (UniProt O15146)
[28] = biological target: NEK4 (human) (UniProt P51957)
[29] = biological target: NTRK2 (human) (UniProt Q16620)
[30] = biological target: NTRK3 (human) (UniProt Q16288)
[31] = biological target: OXSR1 (human) (UniProt O95747)
[32] = biological target: PHKG2 (human) (UniProt P15735)
PHKG2 (human), sequence (P15735 whole entry, looked up): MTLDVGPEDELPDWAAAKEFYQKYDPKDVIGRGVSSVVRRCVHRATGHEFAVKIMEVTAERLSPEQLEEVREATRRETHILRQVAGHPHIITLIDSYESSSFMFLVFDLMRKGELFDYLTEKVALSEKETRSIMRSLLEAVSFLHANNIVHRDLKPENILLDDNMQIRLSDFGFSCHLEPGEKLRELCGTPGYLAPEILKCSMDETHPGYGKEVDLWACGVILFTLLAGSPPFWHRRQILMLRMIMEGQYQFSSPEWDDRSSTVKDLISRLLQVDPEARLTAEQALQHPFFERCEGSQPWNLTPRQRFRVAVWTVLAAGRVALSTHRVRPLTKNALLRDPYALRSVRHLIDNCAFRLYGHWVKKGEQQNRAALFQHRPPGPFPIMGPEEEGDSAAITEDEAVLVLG

[33] = biological target: PRKG2 (human) (UniProt Q13237)
[34] = biological target: PTK2B (human) (UniProt Q14289)
[35] = biological target: RPS6KA4 KD2 (human) (UniProt O75676)
[36] = biological target: STK33 (human) (UniProt Q9BYT3)
[37] = biological target: TAOK2 (human) (UniProt Q9UL54)
TAOK2 (human), sequence (Q9UL54 whole entry, looked up): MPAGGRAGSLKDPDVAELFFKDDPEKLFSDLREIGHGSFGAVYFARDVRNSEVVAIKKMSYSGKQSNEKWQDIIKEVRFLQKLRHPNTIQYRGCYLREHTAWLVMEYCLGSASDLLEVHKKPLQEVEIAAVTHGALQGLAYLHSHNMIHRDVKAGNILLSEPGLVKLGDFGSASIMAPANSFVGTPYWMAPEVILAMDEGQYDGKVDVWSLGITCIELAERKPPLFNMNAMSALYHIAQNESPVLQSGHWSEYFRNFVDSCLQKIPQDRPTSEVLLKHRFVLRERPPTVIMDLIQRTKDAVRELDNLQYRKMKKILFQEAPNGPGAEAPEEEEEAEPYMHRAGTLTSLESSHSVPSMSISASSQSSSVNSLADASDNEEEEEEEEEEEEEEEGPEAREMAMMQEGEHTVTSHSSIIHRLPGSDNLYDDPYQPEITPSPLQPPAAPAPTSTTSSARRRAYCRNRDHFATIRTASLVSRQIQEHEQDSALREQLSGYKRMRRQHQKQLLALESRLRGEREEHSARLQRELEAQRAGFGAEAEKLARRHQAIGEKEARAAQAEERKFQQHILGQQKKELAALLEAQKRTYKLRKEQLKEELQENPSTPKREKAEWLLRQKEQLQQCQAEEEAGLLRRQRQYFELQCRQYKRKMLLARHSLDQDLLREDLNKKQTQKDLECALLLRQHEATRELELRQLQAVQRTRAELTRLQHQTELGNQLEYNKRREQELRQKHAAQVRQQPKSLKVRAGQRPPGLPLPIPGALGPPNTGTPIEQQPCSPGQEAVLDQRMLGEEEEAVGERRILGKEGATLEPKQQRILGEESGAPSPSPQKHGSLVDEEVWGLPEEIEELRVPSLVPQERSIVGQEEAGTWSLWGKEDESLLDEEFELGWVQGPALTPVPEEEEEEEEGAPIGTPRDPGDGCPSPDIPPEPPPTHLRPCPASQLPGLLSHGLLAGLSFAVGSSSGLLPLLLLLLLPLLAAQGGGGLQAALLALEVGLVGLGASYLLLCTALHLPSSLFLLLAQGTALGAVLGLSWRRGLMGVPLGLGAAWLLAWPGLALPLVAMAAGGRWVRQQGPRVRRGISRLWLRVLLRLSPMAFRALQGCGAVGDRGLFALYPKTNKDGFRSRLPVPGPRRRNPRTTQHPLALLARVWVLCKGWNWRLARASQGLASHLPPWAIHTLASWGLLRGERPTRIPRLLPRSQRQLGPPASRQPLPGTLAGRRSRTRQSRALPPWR

[38] = biological target: TAOK3 (human) (UniProt Q9H2K8)
[39] = biological target: TSSK1B (human) (UniProt Q9BXA7)
[40] = biological target: WEE1 (human) (UniProt P30291)
[41] = biological target: WNK3 (human) (UniProt Q9BYP7)
[42] = biological target: DDR2 (human) (UniProt Q16832)

Which results are given for `CN(C)S(=O)(=O)c1ccc2c(c1)/C(=C/c1cc3c([nH]1)CCCC3)C(=O)N2`?
residual activity [1]: 102%; residual activity [2]: 96.7%; residual activity [3]: 39.7%; residual activity [4]: 96.6%; residual activity [5]: 96.9%; residual activity [6]: 115%; residual activity [7]: 99.7%; residual activity [8]: 101%; residual activity [9]: 92.1%; residual activity [10]: 102%; residual activity [11]: 96%; residual activity [12]: 81.1%; residual activity [13]: 103%; residual activity [14]: 33.1%; residual activity [15]: 82.6%; residual activity [16]: 95.6%; residual activity [17]: 31.6%; residual activity [18]: 5.59%; residual activity [19]: 46.1%; residual activity [20]: 60.7%; residual activity [21]: 103%; residual activity [22]: 103%; residual activity [23]: 100%; residual activity [24]: 61.7%; residual activity [25]: 68.9%; residual activity [26]: 20.9%; residual activity [27]: 82.8%; residual activity [28]: 99.9%; residual activity [29]: 15.6%; residual activity [30]: 2.88%; residual activity [31]: 89.1%; residual activity [32]: 78.8%; residual activity [33]: 95.9%; residual activity [34]: 52.6%; residual activity [35]: 104%; residual activity [36]: 77.2%; residual activity [37]: 89.6%; residual activity [38]: 55.4%; residual activity [39]: 74.6%; residual activity [40]: 94.5%; residual activity [41]: 96.5%

How did the residual activity [1] turn out when `COc1ccc(Cl)cc1NC(=O)Nc1cc(C)nc2ccccc12` was run?
The residual activity was 98.6%.

What about the residual activity [2] of the same compound?
The residual activity was 103%.

And the residual activity [3]?
Its residual activity is 94%.

What about the residual activity [4] of the same compound?
Its residual activity is 93.6%.

What about the residual activity [5] of the same compound?
The residual activity was 95.9%.

And the residual activity [6]?
Its residual activity is 100%.

And the residual activity [7]?
Its residual activity is 98.7%.

And the residual activity [8]?
The residual activity was 97.9%.

And the residual activity [9]?
The residual activity was 96%.

And the residual activity [10]?
Its residual activity is 93.3%.

And the residual activity [42]?
The residual activity was 97.7%.

And the residual activity [11]?
Its residual activity is 98.8%.

What about the residual activity [12] of the same compound?
Its residual activity is 103%.

What about the residual activity [14] of the same compound?
The residual activity was 100%.

And the residual activity [15]?
Its residual activity is 105%.

And the residual activity [16]?
Its residual activity is 91.6%.

And the residual activity [17]?
Its residual activity is 101%.

And the residual activity [18]?
Its residual activity is 91.2%.

What about the residual activity [19] of the same compound?
The residual activity was 99.6%.

What about the residual activity [20] of the same compound?
Its residual activity is 87.1%.

What about the residual activity [21] of the same compound?
Its residual activity is 101%.

And the residual activity [22]?
The residual activity was 108%.

And the residual activity [23]?
Its residual activity is 101%.

What about the residual activity [24] of the same compound?
Its residual activity is 99.5%.

And the residual activity [25]?
Its residual activity is 126%.

And the residual activity [26]?
The residual activity was 93.3%.

And the residual activity [27]?
The residual activity was 93.3%.

What about the residual activity [28] of the same compound?
The residual activity was 92%.

And the residual activity [29]?
Its residual activity is 94.6%.

What about the residual activity [30] of the same compound?
Its residual activity is 102%.

What about the residual activity [31] of the same compound?
Its residual activity is 101%.

And the residual activity [32]?
Its residual activity is 98.6%.

What about the residual activity [33] of the same compound?
Its residual activity is 105%.

And the residual activity [34]?
Its residual activity is 88.9%.

What about the residual activity [35] of the same compound?
The residual activity was 94%.

And the residual activity [36]?
Its residual activity is 103%.

And the residual activity [37]?
The residual activity was 98.2%.

What about the residual activity [38] of the same compound?
Its residual activity is 105%.

What about the residual activity [39] of the same compound?
The residual activity was 94.6%.

What about the residual activity [40] of the same compound?
Its residual activity is 89%.

And the residual activity [41]?
The residual activity was 99.9%.

What does the source list for `O=C1Nc2ccc(Br)cc2/C1=C\c1cc2c([nH]1)CCCC2`?
residual activity [1]: 103%; residual activity [2]: 96.6%; residual activity [3]: 90%; residual activity [4]: 97.5%; residual activity [5]: 96.7%; residual activity [6]: 99.1%; residual activity [7]: 72.4%; residual activity [8]: 102%; residual activity [10]: 111%; residual activity [42]: 101%; residual activity [11]: 93.1%; residual activity [12]: 87.1%; residual activity [13]: 90.8%; residual activity [14]: 87.5%; residual activity [15]: 95.8%; residual activity [16]: 94.1%; residual activity [17]: 88.5%; residual activity [18]: 97%; residual activity [19]: 95.2%; residual activity [20]: 83%; residual activity [21]: 93%; residual activity [22]: 100%; residual activity [23]: 95.1%; residual activity [24]: 77%; residual activity [25]: 84.9%; residual activity [26]: 81.2%; residual activity [27]: 88.6%; residual activity [28]: 80.5%; residual activity [29]: 43.6%; residual activity [30]: 11.9%; residual activity [31]: 96.7%; residual activity [32]: 90.5%; residual activity [33]: 92.4%; residual activity [34]: 82.4%; residual activity [35]: 94.2%; residual activity [36]: 77.3%; residual activity [37]: 89.4%; residual activity [38]: 75.3%; residual activity [39]: 36.1%; residual activity [40]: 95.9%; residual activity [41]: 93.8%

`O=C1C(Cl)=C(N2C(=O)CCC2=O)C(=O)c2ccccc21` was tested. Which residual activity [1] did it give?
The residual activity was 105%.

And the residual activity [2]?
The residual activity was 105%.

And the residual activity [5]?
Its residual activity is 97.2%.

What about the residual activity [6] of the same compound?
The residual activity was 101%.

And the residual activity [7]?
The residual activity was 99.4%.

What about the residual activity [8] of the same compound?
The residual activity was 147%.

And the residual activity [9]?
The residual activity was 100%.

What about the residual activity [10] of the same compound?
The residual activity was 101%.

And the residual activity [42]?
The residual activity was 95.8%.

And the residual activity [11]?
Its residual activity is 95.4%.

What about the residual activity [12] of the same compound?
The residual activity was 99.1%.

And the residual activity [13]?
Its residual activity is 98.6%.

And the residual activity [14]?
Its residual activity is 111%.

And the residual activity [15]?
The residual activity was 98.5%.

And the residual activity [16]?
Its residual activity is 100%.

And the residual activity [17]?
The residual activity was 94.2%.

What about the residual activity [18] of the same compound?
Its residual activity is 101%.

What about the residual activity [19] of the same compound?
Its residual activity is 104%.

And the residual activity [20]?
The residual activity was 92.5%.

And the residual activity [21]?
Its residual activity is 100%.

What about the residual activity [22] of the same compound?
Its residual activity is 106%.

And the residual activity [23]?
The residual activity was 103%.

What about the residual activity [24] of the same compound?
Its residual activity is 79.4%.

And the residual activity [25]?
Its residual activity is 87.8%.

And the residual activity [26]?
The residual activity was 90.3%.

What about the residual activity [27] of the same compound?
Its residual activity is 104%.

What about the residual activity [28] of the same compound?
The residual activity was 99.6%.

And the residual activity [29]?
Its residual activity is 104%.

What about the residual activity [30] of the same compound?
The residual activity was 98.6%.

And the residual activity [31]?
The residual activity was 108%.

What about the residual activity [32] of the same compound?
The residual activity was 100%.

And the residual activity [33]?
The residual activity was 114%.

And the residual activity [34]?
Its residual activity is 105%.

What about the residual activity [35] of the same compound?
The residual activity was 115%.

What about the residual activity [36] of the same compound?
Its residual activity is 91.5%.

What about the residual activity [37] of the same compound?
The residual activity was 99.2%.

What about the residual activity [38] of the same compound?
Its residual activity is 95.3%.

And the residual activity [39]?
The residual activity was 104%.

What about the residual activity [40] of the same compound?
The residual activity was 93%.

What about the residual activity [41] of the same compound?
Its residual activity is 96.4%.
